Measured values from US20250136722A1, “CYTOTOXICITY TARGETING CHIMERAS” (GLAXOSMITHKLINE INTELLECTUAL PROPERTY DEVELOPMENT LIMITED, priority 2021, published 2025).

Target: T1, CHOK1 cells engineered to overexpress human CCR2 (Homo sapiens, UniProt P41597)
T1 construct: expressed in transfected cells; host or cells: CHOK1 cells
Test: Antibody dependent cellular cytotoxicity (ADCC) reporter assay (Example 199)
Type: cell-based
Conditions: with anti-cotinine antibody SEQ ID NO: 11/12; CHOK1-human CCR2 target cells, Jurkat FcγRIIIa NFAT-luciferase reporter cells; 12-18 hours; read-out: ADCC Reporter Assay pEC50 (converted)
Method: An antibody dependent cellular cytoxicity reporter assay was conducted using the following four assay components: (i) ARM compound of Formula (I) targeting CCR2 (concentrations ranging from 1 pM to 10 μM) (ii) anti-cotinine antibody having a heavy chain sequence of SEQ ID NO: 11 and a light chain sequence of SEQ ID NO: 12 (rabbit variable region with human IgG1 Fc domain containing a DE mutation (S239D/1332E)) (concentrations ranging from 0.01 μg/mL to 200 μg/mL); (iii) target cells: CHOK1 cells engineered to overexpress either human CCR2 (typically 1000-20,000 cells per well) and (iv) reporter cells: Jurkat cells engineered to express FcγRIIIa with the reporter gene luciferase under the control of the NFAT promoter (typically 3000-75,000 cells per well). Reagents were combined in a final volume of 20 μL in a 384-well tissue culture treated plate. All four assay components were incubated together for about 12-18 hours. Thereafter, BioGlo Detection reagent (Promega) was added to the wells to lyse the cells and provide a substrate for the luciferase reporter protein. Luminescence signal was measured on a microplate reader and signal:background was calculated by dividing the signal of a test well by the signal obtained when no heterobivalent compound of Formula (I) was added. EC50 calculations were done using Graphpad Prism Software, specifically a nonlinear regression curve fit (Y=Bottom+(Top−Bottom)/(1+10^((Log EC50−X)*HillSlope))).
ARMs compounds of Formula (I) of the invention were tested for ADCC activity in the above assay in or more experimental runs and the results are shown in Table 3 below. Potency of the compounds of Formula (I) of the invention is reported as a pEC50 value. The pEC50 value is the negative log of the EC50 value, wherein the EC50 value is the half maximal effective concentration measured in molar (M). For compounds tested in more than one experimental run, the pEC50 value is reported as an average.

SMILES	EC50
CC(C)N(C)[C@@H]1CC[C@H](N2CC[C@H](Nc3ncnc4ccc(C(F)(F)F)cc34)C2=O)[C@H](NC(=O)C2CCC(N3CCC(S(=O)(=O)NCCCCCCNC(=O)[C@H]4CC(=O)N(C)[C@@H]4c4cccnc4)CC3)CC2)C1 (single isomer, unassigned) [Example 148]	3.16 nM
CC(C)N(C)[C@@H]1CC[C@H](N2CC[C@H](Nc3ncnc4ccc(C(F)(F)F)cc34)C2=O)[C@H](NC(=O)CCCNC(=O)CCCC(=O)NCCCOCCCNC(=O)[C@@H]2CC(=O)N(C)[C@H]2c2cccnc2)C1 [Example 21]	0.469 nM
CC(C)N(C)[C@@H]1CC[C@H](N2CC[C@H](Nc3ncnc4ccc(C(F)(F)F)cc34)C2=O)[C@H](NC(=O)C23CCC(NC(=O)CCOCCOCCOCCNC(=O)[C@H]4CC(=O)N(C)[C@@H]4c4cccnc4)(CC2)CC3)C1 [Example 25]	20 nM
CC(C)N(C)[C@@H]1CC[C@H](N2CC[C@H](Nc3ncnc4ccc(C(F)(F)F)cc34)C2=O)[C@H](NC(=O)C[C@H]2CC[C@H](NC(=O)CCOCCOCCOCCNC(=O)[C@H]3CC(=O)N(C)[C@@H]3c3cccnc3)CC2)C1 [Example 33]	4.54 nM
CN1C(=O)C[C@H](C(=O)NCCOCCOCCOCCOCCOCCOCCOCCOCCC(=O)N[C@@H]2C[C@H](NC(C)(C)C)CC[C@@H]2N2CC[C@H](Nc3ncnc4ccc(C(F)(F)F)cc34)C2=O)[C@H]1c1cccnc1 [Example 36, (2S,3S)-N-(27-(((1R,2S,5R)-5-(tert-Butylamino)-2-((S)-2-oxo-3-((6-(trifluoromethyl)quinazolin-4-yl)amino)pyrrolidin-1-yl)cyclohexyl)amino)-27-oxo-3,6,9,12,15,18,21,24-octaoxaheptacosyl)-1-methyl-5-oxo-2-(pyridin-3-yl)pyrrolidine-3-carboxamide]	3.98 nM
CC(C)N(C)[C@@H]1CC[C@H](N2CC[C@H](Nc3ncnc4ccc(C(F)(F)F)cc34)C2=O)[C@H](NC(=O)[C@H]2C[C@H](NC(=O)CCOCCNC(=O)CCOCCNC(=O)[C@@H]3CC(=O)N(C)[C@H]3c3cccnc3)C2)C1 [Example 45]	3.98 nM
CN1C(=O)C[C@H](C(=O)NCCC(=O)NCCOCCOCCC(=O)N[C@H]2CC[C@@H](C(=O)N[C@@H]3C[C@H](NC(C)(C)C)CC[C@@H]3N3CC[C@H](Nc4ncnc5ccc(C(F)(F)F)cc45)C3=O)CC2)[C@H]1c1cccnc1 [Example 51]	2 nM
CC(C)N(C)[C@@H]1CC[C@H](N2CC[C@H](Nc3ncnc4ccc(C(F)(F)F)cc34)C2=O)[C@H](NC(=O)CCCOC[C@H]2CC[C@H](COCCNC(=O)[C@H]3CC(=O)N(C)[C@@H]3c3cccnc3)CC2)C1 [Example 58]	50.1 nM
CC(C)N(C)[C@@H]1CC[C@H](N2CC[C@H](Nc3ncnc4ccc(C(F)(F)F)cc34)C2=O)[C@H](NC(=O)CCCOCC23CCC(COCCNC(=O)[C@H]4CC(=O)N(C)[C@@H]4c4cccnc4)(CC2)CC3)C1 [Example 59]	251 nM
CC(C)N(C)[C@@H]1CC[C@H](N2CC[C@H](Nc3ncnc4ccc(C(F)(F)F)cc34)C2=O)[C@H](NC2CCC(C(=O)NCCOCCOCCNC(=O)[C@H]3CC(=O)N(C)[C@@H]3c3cccnc3)CC2)C1 (some centres unmarked) [Example 68]	10 nM
CC(C)N(C)[C@@H]1CC[C@H](N2CC[C@H](Nc3ncnc4ccc(C(F)(F)F)cc34)C2=O)[C@H](NC(=O)COCCNC(=O)CNC(=O)COCCOCCNC(=O)[C@H]2CC(=O)N(C)[C@@H]2c2cccnc2)C1 [Example 78]	5.52 nM
CC(C)N(C)[C@@H]1CC[C@H](N2CC[C@H](Nc3ncnc4ccc(C(F)(F)F)cc34)C2=O)[C@H](NC(=O)[C@H]2CC[C@@H](NC(=O)CNC(=O)COCCOCCNC(=O)[C@H]3CC(=O)N(C)[C@@H]3c3cccnc3)CC2)C1 [Example 81]	0.522 nM
CC(C)N(C)[C@@H]1CC[C@H](N2CC[C@H](Nc3ncnc4ccc(C(F)(F)F)cc34)C2=O)[C@H](NC(=O)[C@H]2CC[C@@H](NC(=O)COCCOCCNC(=O)CCNC(=O)[C@H]3CC(=O)N(C)[C@@H]3c3cccnc3)CC2)C1 [Example 82]	0.479 nM
CC(C)N(C)[C@@H]1CC[C@H](N2CC[C@H](Nc3ncnc4ccc(C(F)(F)F)cc34)C2=O)[C@H](NC(=O)COCC(=O)N2CCN(C(=O)N3CCN(C(=O)COCCNC(=O)[C@H]4CC(=O)N(C)[C@@H]4c4cccnc4)CC3)CC2)C1 [Example 84]	0.213 nM
CC(C)N(C)[C@@H]1CC[C@H](N2CC[C@H](Nc3ncnc4ccc(C(F)(F)F)cc34)C2=O)[C@H](NC(=O)CCc2ccc(C3CCN(C(=O)CCCCCNC(=O)[C@H]4CC(=O)N(C)[C@@H]4c4cccnc4)CC3)cc2)C1 [Example 86, (2S,3S)-N-(6-(4-(4-(3-(((1R,2S,5R)-5-(Isopropyl(methyl)amino)-2-((S)-2-oxo-3-((6-(trifluoromethyl)quinazolin-4-yl)amino)pyrrolidin-1-yl)cyclohexyl)amino)-3-oxopropyl)phenyl)piperidin-1-yl)-6-oxohexyl)-1-methyl-5-oxo-2-(pyridin-3-yl)pyrrolidine-3-carboxamide]	7.94 nM
CC(C)N(C)[C@@H]1CC[C@H](N2CC[C@H](Nc3ncnc4ccc(C(F)(F)F)cc34)C2=O)[C@H](NC(=O)C2CCN(C3CCN(C(=O)CCCCCNC(=O)[C@H]4CC(=O)N(C)[C@@H]4c4cccnc4)CC3)CC2)C1 [Example 87]	3.98 nM
CC(C)N(C)[C@@H]1CC[C@H](N2CC[C@H](Nc3ncnc4ccc(C(F)(F)F)cc34)C2=O)[C@H](NC(=O)c2cc(OCCOCCOCCOCCOCCNC(=O)[C@H]3CC(=O)N(C)[C@@H]3c3cccnc3)ccn2)C1 [Example 88, N-((1R,2S,5R)-5-(Isopropyl(methyl)amino)-2-((S)-2-oxo-3-((6-(trifluoromethyl)quinazolin-4-yl)amino)pyrrolidin-1-yl)cyclohexyl)-4-((1-((2S,3S)-1-methyl-5-oxo-2-(pyridin-3-yl)pyrrolidin-3-yl)-1-oxo-5,8,11,14-tetraoxa-2-azahexadecan-16-yl)oxy)picolinamide]	2.51 nM
CC(C)N(C)[C@@H]1CC[C@H](N2CC[C@H](Nc3ncnc4ccc(C(F)(F)F)cc34)C2=O)[C@H](NC(=O)c2cc(OCCOCCOCCOCCNC(=O)[C@H]3CC(=O)N(C)[C@@H]3c3cccnc3)ccn2)C1 [Example 89]	6.31 nM
CC(C)N(C)[C@@H]1CC[C@H](N2CC[C@H](Nc3ncnc4ccc(C(F)(F)F)cc34)C2=O)[C@H](NC(=O)C2CCN(C3CCN(CCOCCOCCNC(=O)[C@H]4CC(=O)N(C)[C@@H]4c4cccnc4)CC3)CC2)C1 [Example 90, N-((1R,2S,5R)-5-(Isopropyl(methyl)amino)-2-((S)-2-oxo-3-((6-(trifluoromethyl)quinazolin-4-yl)amino)pyrrolidin-1-yl)cyclohexyl)-1′-(2-(2-(2-((2S,3S)-1-methyl-5-oxo-2-(pyridin-3-yl)pyrrolidine-3-carboxamido)ethoxy)ethoxy)ethyl)-[1,4′-bipiperidine]-4-carboxamide]	2 nM
CC(C)N(C)[C@@H]1CC[C@H](N2CC[C@H](Nc3ncnc4ccc(C(F)(F)F)cc34)C2=O)[C@H](NC(=O)c2ccc(OC3CCN(CCOCCOCCNC(=O)[C@H]4CC(=O)N(C)[C@@H]4c4cccnc4)CC3)cc2)C1 [Example 91]	2 nM
CC(C)N(C)[C@@H]1CC[C@H](N2CC[C@H](Nc3ncnc4ccc(C(F)(F)F)cc34)C2=O)[C@H](NC(=O)c2cnn(C3CCN(CCOCCOCCNC(=O)[C@H]4CC(=O)N(C)[C@@H]4c4cccnc4)CC3)c2)C1 [Example 92, N-((1R,2S,5R)-5-(Isopropyl(methyl)amino)-2-((S)-2-oxo-3-((6-(trifluoromethyl)quinazolin-4-yl)amino)pyrrolidin-1-yl)cyclohexyl)-1-(1-(2-(2-(2-((2S,3S)-1-methyl-5-oxo-2-(pyridin-3-yl)pyrrolidine-3-carboxamido)ethoxy)ethoxy)ethyl)piperidin-4-yl)-1H-pyrazole-4-carboxamide]	6.31 nM
CC(C)N(C)[C@@H]1CC[C@H](N2CC[C@H](Nc3ncnc4ccc(C(F)(F)F)cc34)C2=O)[C@H](NC(=O)C2CCC3(CC2)CCN(CCOCCOCCNC(=O)[C@H]2CC(=O)N(C)[C@@H]2c2cccnc2)CC3)C1 [Example 93]	3.98 nM
CC(C)N(C)[C@@H]1CC[C@H](N2CC[C@H](Nc3ncnc4ccc(C(F)(F)F)cc34)C2=O)[C@H](NC(=O)[C@H]2CC[C@@H](NC(=O)C3CCC4(CC3)CCN(C(=O)[C@H]3CC(=O)N(C)[C@@H]3c3cccnc3)CC4)CC2)C1 [Example 95, N-((1 S,4R)-4-(((1R,2S,5R)-5-(Isopropyl(methyl)amino)-2-((S)-2-oxo-3-((6-(trifluoromethyl)quinazolin-4-yl)amino)pyrrolidin-1-yl)cyclohexyl)carbamoyl)cyclohexyl)-3-((2S,3S)-1-methyl-5-oxo-2-(pyridin-3-yl)pyrrolidine-3-carbonyl)-3-azaspiro[5.5]undecane-9-carboxamide]	6.31 nM
